{"source": "patent US20250250310A1", "about": "“COMBINATION THERAPY WITH ADP-RIBOSE BINDING PEPTIDE AND ADP-RIBOSE FOR PREVENTION OR TREATMENT OF CANCER” (PEARLSINMIRES CO., LTD., priority 2023, published 2025)", "key": {"[1]": {"system": "Colon cancer (HCT116) cells", "test": "HCT116 cell viability (MTT), peptides and ADP-ribose alone or in combination", "assay_type": "cell-based, human", "details": "treated groups vs untreated, ADPR 1 mM, peptide 25 μM, CPP-peptide 10 μM, 96 hours", "experimental": "(§1) 2.5×10^3 Colon cancer (HCT116) cells were cultured in a 96-well plate for 24 hours under 37° C. and 5% CO2 conditions, and then divided into the following groups and treated with each peptide according to Examples at GI50 concentration alone or in combination. • 1) Untreated group • 2) Group treated with ADPR at 1 mM concentration alone • 3) Group treated with peptide of Example 6 at 25 μM concentration alone • 4) Group treated with each CPP-peptide of Example 20 at 10 μM concentration alone • 5) Group treated in combination with ADPR at 1 mM concentration and peptide of Example 6 at 25 μM concentration (Combination 1) • 6) Group treated in combination with ADPR at 1 mM concentration and CPP-peptide of Example 20 at 10 μM concentration (Combination 2)\n(§2) The cells were then cultured for another 96 hours under 37° C. and 5% CO2 conditions, and 10 μl of 3-(4,5-dimethylthiazol-2-yl)-2,5-diphenyltetrazolium bromide reagent was added to each well and reacted for 1 hour. The reagent was removed at the end of the reaction, 200 μl of dimethyl sulfoxide was then added to each well, and the absorbance was measured to determine the cell viability."}, "[2]": {"system": "PARP inhibitor-resistant breast cancer (HCC1937) cells", "test": "Cell viability (MTT) in PARP inhibitor-resistant cancer cell line", "assay_type": "cell-based, human", "details": "96 hours", "experimental": "Specifically, 2.5×10^3 PARP inhibitor-resistant breast cancer (HCC1937) cells were cultured in a 96-well plate for 24 hours under 37° C. and 5% CO2 conditions.\nThe cells were then divided into the following groups and treated with each peptide according to Examples at GI50 concentration alone or in combination. • 1) Untreated group • 2) Group treated with PARP inhibitor (Olaparib) at 2 μM concentration • 3) Group treated with ADPR at 1 mM concentration alone • 4) Groups treated with each peptide of Examples 1 to 6 at 25 μM concentration alone • 5) Groups treated with each CPP-peptide of Examples 15 to 20 at 10 μM concentration alone • 6) Group treated in combination with ADPR at 1 mM concentration and each peptide of Examples 1 to 6 at 25 μM concentration (Combination 1) • 6) Group treated in combination with ADPR at 1 mM concentration and CPP-peptide of Examples 15 to 20 at 10 μM concentration (Combination 2)\nas §2"}, "[3]": {"system": "Pancreatic cancer (AsPC-1) cells", "test": "AsPC-1 cell viability (MTT), peptides and ADP-ribose alone or in combination", "assay_type": "cell-based, human", "details": "treated groups vs untreated, ADPR 1 mM, peptide 25 μM, CPP-peptide 10 μM, 96 hours", "experimental": "as §1, with “2.5×10^3 Pancreatic” for “2.5×10^3 Colon”, “cancer (AsPC-1)” for “cancer (HCT116)”, “Example 3” for “Example 6”, “Example 17” for “Example 20”\nas §2"}, "[4]": {"system": "Kidney cancer (Caki-1) cells", "test": "Caki-1 cell viability (MTT), peptides and ADP-ribose alone or in combination", "assay_type": "cell-based, human", "details": "treated groups vs untreated, ADPR 1 mM, peptide 25 μM, CPP-peptide 10 μM, 96 hours", "experimental": "as §1, with “2.5×10^3 Kidney” for “2.5×10^3 Colon”, “cancer (Caki-1)” for “cancer (HCT116)”, “Example 1” for “Example 6”, “Example 15” for “Example 20”\nas §2"}, "[5]": {"system": "Breast cancer (HCC1937) cells", "test": "HCC1937 cell viability (MTT), peptides and ADP-ribose alone or in combination", "assay_type": "cell-based, human", "details": "treated groups vs untreated, ADPR 1 mM, peptide 25 μM, CPP-peptide 10 μM, 96 hours", "experimental": "as §1, with “2.5×10^3 Breast” for “2.5×10^3 Colon”, “cancer (HCC1937)” for “cancer (HCT116)”, “Example 2” for “Example 6”, “Example 16” for “Example 20”\nas §2"}, "[6]": {"system": "Liver cancer (HepG2) cells", "test": "HepG2 cell viability (MTT), peptides and ADP-ribose alone or in combination", "assay_type": "cell-based, human", "details": "treated groups vs untreated, ADPR 1 mM, peptide 25 μM, CPP-peptide 10 μM, 96 hours", "experimental": "as §1, with “2.5×10^3 Liver” for “2.5×10^3 Colon”, “cancer (HepG2)” for “cancer (HCT116)”, “Example 4” for “Example 6”, “Example 18” for “Example 20”\nas §2"}, "[7]": {"system": "Lung cancer (H1975) cells", "test": "H1975 cell viability (MTT), peptides and ADP-ribose alone or in combination", "assay_type": "cell-based, human", "details": "treated groups vs untreated, ADPR 1 mM, peptide 25 μM, CPP-peptide 10 μM, 96 hours", "experimental": "as §1, with “2.5×10^3 Lung” for “2.5×10^3 Colon”, “cancer (H1975)” for “cancer (HCT116)”, “Example 5” for “Example 6”, “Example 19” for “Example 20”\nas §2"}, "MDA-MB-231 cancer cells": {"system": "MDA-MB-231 cancer cells", "test": "MDA-MB-231 cell viability (MTT), sustained release derivative alone or in combination", "assay_type": "cell-based", "details": "96 hours", "experimental": "Each of 2.5×10^3 human-derived pancreatic cancer (Aspc-1), kidney cancer (Caki-1), breast cancer (HCC1937), liver cancer (HepG2), lung cancer (H1975), colon cancer (HCT116), ovarian cancer (OVCAR-3), brain cancer (U87) cells were cultured in a 96-well plate under 37° C. and 5% CO2 conditions for 24 hours, and then treated with the sustained release derivative alone. In addition, MDA-MB-231 cancer cells were divided into the following groups and treated with each formulation at GI20 concentration alone or in combination. • 1) Untreated group • 2) Group treated with sustained-release derivative alone at 5 μM concentration • 3) Group treated with ADPR at 2 mM concentration alone • 4) Group treated with NAD^+ at 2 mM concentration alone • 5) Groups treated with various anti-cancer drugs alone (Cisplatin at 2 μM, Docetaxel at 1 μM, Dichloroacetate at 3 mM, Doxorubicin at 2 μM, Sorafenib at 2 μM, Osimertinib at 10 nM, Trastuzumab at 0.2 μM, Bevacizumab at 0.2 nM, Tamoxifen at 0.2 μM, or Olaparib at 1 μM) • 6) Group treated in combination with ADPR at 2 mM concentration and a sustained-release derivative at 5 μM concentration • 7) Group treated in combination with ADPR at 2 mM concentration, NAD^+ at 2 mM concentration, and a sustained-release derivative at 5 μM concentration • 8) Group treated in combination with ADPR at 2 mM concentration, a sustained-release derivative at 5 μM concentration, and various anti-cancer drugs (same concentration as Group 5 above).\nas §2, with “at” for “under”, “CO2,” for “CO2 conditions,”"}, "[8]": {"system": "ovarian cancer (OVCAR-3) cells", "test": "OVCAR-3 cell viability (MTT), peptides and NAD^+ alone or in combination", "assay_type": "cell-based, human", "details": "NAD^+ 1 mM alone, 96 hours", "experimental": "Specifically, 2.5×10^3 ovarian cancer (OVCAR-3) cells were cultured in a 96-well plate for 24 hours under 37° C. and 5% CO2 conditions, and then divided into the following groups and treated with each peptide according to Examples at GI50 concentration alone or in combination. • 1) Untreated group • 2) Group treated with NAD^+ at 1 mM concentration alone • 3) Group treated with peptide of Example 2 at 25 μM concentration alone • 4) Group treated with CPP-peptide of Example 16 at 10 μM concentration alone • 5) Group treated in combination with NAD^+ at 1 mM concentration and peptide of Example 2 at 25 μM concentration (Combination 1) • 6) Group treated in combination with NAD^+ at 1 mM concentration and CPP-peptide of Example 16 at 10 μM concentration (Combination 2)\nas §2"}, "[9]": {"test": "Normal cytotoxicity of sustained release derivative alone or in combination (MTT)", "assay_type": "cell-based", "details": "human, MRC5 cells (normal), sustained-release derivative alone, read-out: viability of normal cells compared to the untreated group", "experimental": "In a 96-well plate, 2.5×10^3 human-derived normal MRC5 cells were cultured for 24 hours under 37° C. and 5% CO2 conditions, and then treated with the sustained-release derivative and ADPR alone or in combination.\nas §2, with “96 hours at 37° C.” for “96 hours under 37° C.”, “and 5% CO2, and 10” for “and 5% CO2 conditions, and 10”, “hour. The MTT reagent was” for “hour. The reagent was”"}}, "note": "Where a SMILES comes first, the peptide text is derived from it. [ ]: non-standard residue; d: D form. The star is where a group is joined. Stearoyl = CCCCCCCCCCCCCCCCCC(=O)*; AEEA = NCCOCCOCC(=O)O"}
{"smiles": "Nc1ncnc2c1ncn2[C@@H]1O[C@H](COP(=O)(O)OP(=O)(O)OC[C@H]2O[C@@H](O)C(O)C2O)C(O)C1O", "note": "(some centres unmarked) [ADP-ribose]", "values": [{"measurement": "cell viability", "setting": "[1]", "result": "viability was reduced"}, {"measurement": "cell viability, single treatment", "setting": "[2]; ADPR 1 mM, peptide 25 μM or CPP-peptide 10 μM alone", "result": "significantly reduced cell viability"}, {"measurement": "cell viability", "setting": "[3]", "result": "viability was reduced"}, {"measurement": "cell viability", "setting": "[4]", "result": "viability was reduced"}, {"measurement": "cell viability", "setting": "[5]", "result": "viability was reduced"}, {"measurement": "cell viability", "setting": "[6]", "result": "viability was reduced"}, {"measurement": "cell viability", "setting": "[7]", "result": "viability was reduced"}, {"measurement": "cell viability", "setting": "MDA-MB-231 cancer cells; single treatment (derivative 5 μM, ADPR 2 mM, NAD^+ 2 mM, anti-cancer drugs)", "result": 80, "unit": "%"}]}
{"smiles": "NC(=O)c1ccc[n+]([C@@H]2O[C@H](COP(=O)(O)OP(=O)(O)OC[C@H]3O[C@@H](n4cnc5c(N)ncnc54)[C@H](O)[C@@H]3O)[C@@H](O)[C@H]2O)c1", "note": "[NAD^+, nicotinamide adenine dinucleotide]", "values": [{"measurement": "cell growth / viability vs control group", "setting": "[8]", "result": "not significantly different from the control group"}, {"measurement": "viability at 2000 µM", "setting": "MDA-MB-231 cancer cells; Homo sapiens, single treatment (derivative 5 μM, ADPR 2 mM, NAD^+ 2 mM, anti-cancer drugs)", "result": 80, "unit": "%"}]}
{"smiles": "O=C(c1cc(Cc2n[nH]c(=O)c3ccccc23)ccc1F)N1CCN(C(=O)C2CC2)CC1", "note": "[Olaparib, reference compound]", "values": [{"measurement": "viability at 2 µM", "setting": "[2]; Homo sapiens, Olaparib 2 μM alone, read-out: cancer cells viable", "result": "~80", "unit": "%"}]}
{"smiles": "CCCCCCCCCCCCCCCCCC(=O)NCCCC[C@H](NC(=O)[C@H](CCCNC(=N)N)NC(=O)[C@H](CCCNC(=N)N)NC(=O)[C@H](CCCNC(=N)N)NC(=O)CNC(=O)[C@H](Cc1c[nH]cn1)NC(=O)[C@H](CCC(=O)O)NC(=O)[C@H](CC(N)=O)NC(=O)[C@H](CCCNC(=N)N)NC(=O)[C@H](CCCNC(=N)N)NC(=O)[C@H](Cc1ccc(O)cc1)NC(=O)[C@H](CCC(N)=O)NC(=O)[C@@H](NC(=O)[C@H](CCSC)NC(=O)[C@H](CC(N)=O)NC(=O)[C@H](CCC(=O)O)NC(=O)[C@H](CC(C)C)NC(=O)[C@H](CC(=O)O)NC(=O)[C@H](C)NC(=O)[C@@H](NC(=O)[C@H](Cc1ccc(O)cc1)NC(=O)[C@H](CC(C)C)NC(=O)[C@H](Cc1ccccc1)NC(=O)[C@H](CCC(N)=O)NC(=O)[C@@H]1CCCN1C(=O)[C@H](CCCNC(=N)N)NC(=O)[C@H](CCCNC(=N)N)NC(=O)[C@H](CCCNC(=N)N)NC(=O)[C@H](CCC(N)=O)NC(=O)[C@H](CCCNC(=N)N)NC(=O)[C@H](CCCNC(=N)N)NC(=O)[C@H](CCCCN)NC(=O)[C@H](CCCCN)NC(=O)[C@H](CCCNC(=N)N)NC(=O)CNC(=O)COCCOCCN)C(C)C)C(C)C)C(=O)N[C@H](C(=O)N[C@@H](CCCCN)C(=O)N[C@@H](CCCNC(=N)N)C(N)=O)[C@@H](C)CC", "note": "[sustained-release derivative] (H-[AEEA]GRKKRRQRRRPQFLYVADLENMVQYRRNEHGRRRK(Stearoyl)IKR-NH2; C-terminus assumed)", "values": [{"measurement": "viability at 96 h", "setting": "[9]", "result": "≥ 90", "unit": "%"}, {"measurement": "cytotoxicity, triple-drug combination", "setting": "MDA-MB-231 cancer cells; sustained-release derivative 5 μM + ADPR 2 mM + NAD^+ 2 mM or various anti-cancer drugs", "result": "significantly superior cytotoxicity"}, {"measurement": "cytotoxicity, combination with ADPR", "setting": "MDA-MB-231 cancer cells; sustained-release derivative 5 μM + ADPR 2 mM", "result": "showed cytotoxicity"}]}
